Data reported in US11426473B2, “Nitrogen-containing compound or salt thereof, or metal complex thereof” (FUJIFILM Corporation, priority 2013, dated 2022).

Key:
[1] = test system: U87MG cells subcutaneous tumor; assay: Concentration of radioactivity in tumor of labeled compounds (Test Example 4); format: in vivo, mouse; details: tail vein, 111In 740 kBq, 64Cu and 90Y 500 kBq
Experimental: U87MG cells were subcutaneously transplanted at 1×10^7 cells/mouse to the right flank of Balb/cAJcl-nu/nu (CLEA Japan, Inc. or Japan SLC, Inc., 6 to 9 weeks old). After 2 to 3 weeks, the mice were divided into groups each involving 3 individuals per point in time when their tumors became 200 to 500 mm^3. The ^111In-labeled compound (740 kBq) was administered to the tail veins of the mice.
After a given time, the animals were sacrificed to extract their tumors. The weights of the tumors were measured, and the radioactivity was measured using a gamma counter to calculate the concentration of radioactivity in the tumors (% ID/g). In the same way as above, the concentration of radioactivity in the tumors (% ID/g) was calculated for the ^64Cu-labeled compound (500 kBq) and the ^90Y-labeled compound (500 kBq).

[2] = test system: U87MG cells subcutaneous tumor; assay: Treatment experiment of subcutaneously U87MG-transplanted model using [90Y]-(P2); format: in vivo, mouse; details: 1 dose; for Rate of inhibition: 16 days after administration, above 100% indicated as 100%; for Tumor volume 16 days after administration / Tumor volume At start of administration: n 8, Mean ± SD; for Tumor volume At start of administration: baseline; for The number of individuals having tumor regression: of n 8
Experimental: (§1) U87MG cells were subcutaneously transplanted at 1×10^7 cells/mouse to the right flank of Balb/c Slc-nu/nu (SLC Japan, Inc., male, 6 weeks old). After 2 weeks, mice whose tumors became 100 to 500 mm^3 were grouped. Phosphate-buffered saline (PBS) or the radiolabeled compound [90Y]-(P2) was administered to the tail veins of the mice, and their tumor volumes were measured. When the tumor volumes of the mice in the PBS group exceeded 2,000 mm^3, which is a humanistic endpoint, the antitumor effect was evaluated. The evaluation values were the rate of inhibition of tumor growth ((1−(Average tumor volume of the compound administration group−Average tumor volume of the compound administration group before administration)/(Average tumor volume of the PBS group−Average tumor volume of the PBS group before administration))×100 (provided that the rate of inhibition exceeding 100% was indicated as 100%)) and the number of individuals having a tumor volume equal to or smaller than that at the start of the experiment (the number of individuals having tumor regression).

[3] = test system: T98G cell (human glioblastoma) subcutaneous tumor; assay: Treatment experiment of subcutaneously T98G-transplanted model using [90Y]-(P2); format: in vivo, mouse; details: 1 dose; for Rate of inhibition: 13 days after administration, above 100% indicated as 100%; for Tumor volume 13 days after administration / Tumor volume At start of administration: n 6, Mean ± SD; for Tumor volume At start of administration: baseline; for The number of individuals having tumor regression: of n 6
Experimental: as §1
A mixture of a T98G cell suspension (human glioblastoma, 1×10^7 cells) and Matrigel (Becton, Dickinson and Company) in equal amounts was subcutaneously transplanted to the right flank of Balb/c Slc-nu/nu (SLC Japan, Inc., male, 6 weeks old). After 77 days, the mice were grouped when their tumors became 300 to 1,200 mm^3. Phosphate-buffered saline (PBS) or the radiolabeled compound [^90Y]-(P2) was administered to the tail veins of the mice, and their tumor volumes were measured. The evaluation values were calculated in the same way as in Test Example 8 to evaluate the antitumor effect.

[4] = Absorbed doses in each organ in humans calculated with OLINDA/EXM 1.0 from monkey organ distribution; format: in vivo; details: calculated with OLINDA/EXM 1.0 from monkey imaging with [111In]-(P2)
Experimental: Blood kinetic parameters were calculated with OLINDA/EXM 1.0 from the blood concentration of radioactivity by blood collection over time from a cynomolgus monkey using [^111In]-(P2). Also, absorbed doses in each organ in the case of administration to humans were calculated with OLINDA/EXM 1.0 from organ distribution by imaging using [^111In]-(P2). The radiolabeled compound [^111In]-(P2) (98 MBq/[…]) was administered to a cynomolgus monkey (Hamri Co., Ltd., male, 3 years old, 3.4 kg) under anesthesia. After the administration, blood collection and imaging with a gamma camera were performed over time. The blood collection was carried out 10 minutes, 30 minutes, 60 minutes, 2 hours, 4 hours, 5 hours, 6 hours, 24 hours, 48 hours, 72 hours, and 144 hours after administration. The imaging was carried out 1, 2, 4, 6, 24, 48, 72, and 144 hours after administration with a gamma camera (Symbia, Siemens AG) to take planar images. The anesthesia was carried out using 20 mg/kg ketamine before administration of [^111In]-(P2) and maintained by inhalation anesthesia (2 to 3% isoflurane, 5 to 8 L/min) until the completion of the imaging at 6 hours after administration. At or after 24 hours after administration, blood collection and imaging were performed by the introduction of 20 mg/kg ketamine and 2 mg/kg xylazine. […] The blood kinetic parameters are shown below.

[5] = Radiochemical purity after standing at room temperature; format: physicochemical; details: immediately after preparation and after standing at room temperature for 24 hours
Experimental: To a mixed solution of compound (P2) (8.5 μg) and a 0.2 mol/L sodium acetate buffer solution (pH 4.0) (1.5 mL), a [^111In] indium chloride solution (80 MBq, 100 μL) was added. The mixture was heated at 100° C. for 15 minutes and then left at room temperature for 5 minutes to obtain radiolabeled compound [^111In]-(P2). […] Its radiochemical purity was 95% or more both immediately after preparation and after standing at room temperature for 24 hours.
To a mixed solution of compound (P2) (79 μg), gentisic acid (1.8 mg), a 0.6 mol/L sodium acetate buffer solution (pH 4.0, 120 μL), and a 0.4 mol/L aqueous sodium hydroxide solution (24 μL), a [^90Y] yttrium chloride solution (700 MBq, 240 μL) was added. The mixture was heated at 100° C. for 20 minutes and then left at room temperature for 5 minutes to obtain radiolabeled compound [^90Y]-(P2). […] Its radiochemical purity was 95% or more both immediately after preparation and after standing at room temperature for 24 hours.
To a mixed solution of compound (P2) ([…]) and a 0.2 mol/L sodium acetate buffer solution (pH 4.0, 219 μL), a [^64Cu] copper chloride solution (pH 5, 35 MBq, 55 μL) was added. The mixture was heated at 100° C. for 15 minutes and then left at room temperature for 5 minutes to obtain radiolabeled compound [^64Cu]-(P2). […] Its radiochemical purity was 90% or more both immediately after preparation and after standing at room temperature for 22 hours.
To a mixed solution of compound (Aa7) (4.2 μg), gentisic acid (1 mg), and a 0.2 mol/L sodium acetate buffer solution (pH 4.0) (5.0 μL), [^64Cu] copper chloride in a 0.2 mol/L sodium acetate buffer solution (pH 4.0) (40 MBq, 155 μL) was added. The mixture was heated at 100° C. for 15 minutes and then left at room temperature for 5 minutes to obtain radiolabeled compound [^64Cu]-(Aa7). […] Its radiochemical purity was 90% or more both immediately after preparation and after standing at room temperature for 24 hours.

## Cc1cc(OCCCC(=O)NCCNC(=O)[C@H](CS(=O)(=O)O)NC(=O)CN2CCN(CC(=O)[O-])CCN(CC(=O)[O-])CCN(CC(=O)[O-])CC2)cc(C)c1S(=O)(=O)N[C@@H](CNC(=O)CCCCc1ccc2c(n1)NCCC2)C(=O)O.[90Y+3] [[^90Y]-(P2)]
[1]; 4 hours later
  Concentration of radioactivity in tumor: 12.52 % ID/g
[1]; 24 hours later
  Concentration of radioactivity in tumor: 15.29 % ID/g
[2]; Dose 14.8 MBa
  Rate of inhibition: 95%
  Tumor volume 16 days after administration: 429 ± 188 mm^3
  Tumor volume At start of administration: 351 ± 72 mm^3
  The number of individuals having tumor regression: 2
[2]; Dose 22.2 MBa
  Rate of inhibition: 97%
  Tumor volume 16 days after administration: 386 ± 142 mm^3
  Tumor volume At start of administration: 343 ± 88 mm^3
  The number of individuals having tumor regression: 2
[3]; Dose 22.2 MBa
  Rate of inhibition: 82%
  Tumor volume 13 days after administration: 882 ± 399 mm^3
  Tumor volume At start of administration: 755 ± 293 mm^3
  The number of individuals having tumor regression: 1
[3]; Dose 29.6 MBa
  Rate of inhibition: 97%
  Tumor volume 13 days after administration: 755 ± 313 mm^3
  Tumor volume At start of administration: 736 ± 264 mm^3
  The number of individuals having tumor regression: 3
[4]
  Absorbed dose, Brain: 1.96 mGy/MBq
  Absorbed dose, Kidney: 14.70 mGy/MBq
  Absorbed dose, Liver: 1.12 mGy/MBq
  Absorbed dose, Lung: 1.35 mGy/MBq
  Absorbed dose, Red bone marrow: 0.06 mGy/MBq
  Absorbed dose, Small intestine: 0.87 mGy/MBq
  Absorbed dose, Whole body: 0.27 mGy/MBq
[5]
  radiochemical purity after standing: ≥ 95%
